Assay results as given in patent publication US20080261980A1, “Use of Thiazolidinone Derivatives as Antiangiogenic Agents” (Cell Therapeutics, Inc., priority 2004, published 2008).

Experiments:
[1] = tested on: VEGF promoter (rat VEGF gene promoter-luciferase reporter in Hep3B cells); experiment: Luciferase assay in Hep3B-VEGF Luciferase cells, hypoxia induced by deferoxamine; format: cell-based, human; details: deferoxamine about 100 μM, 18-20 hours, 50% inhibition of the luciferase signal
Protocol: (§1) The compounds having inhibitory activity in the Hif-1a/p300 assay described above were evaluated using a cellular test on genetically modified human hepatocarcinoma Hep3B cells (Hep3B-VEGFLuciferase) in order to stably express a vector in which the Open Reading Frame of firefly Luciferase is under the control of the rat VEGF gene promoter.
Hif-1 induction by deferoxamine (which causes hypoxia) induces luciferase transcription through activation of the VEGF promoter, which in turn increases luciferase activity, which can be measured with a commercially available kit. The compounds interfering with the Hif-1a/p300 complex inhibit Hif-dependent luciferase activation, resulting in a reduction of luciferase activity. Therefore, this assay allows to evaluate the activity of the compounds towards the VEGF promoter, which is essential to VEGF production and subsequent tumor angiogenesis.
(§2) The Hep-3B-VEGF Luciferase cell line was obtained according to the following procedure.
(§3) Human hepatocarcinoma cells Hep-3B (ATCC reference No. HB-8064) were seeded onto 6-well plates at a concentration of 2.5×10^5 cells/well in 2 ml DMEM/10% FCS and the following day were transfected using Fugene 6 (Roche Biochemicals®). In each well, the transfection mixtures contained 6 μl of the transfection reagent Fugene 6, 1 μg of the pxp2-VEGF-luciferase reporter plasmid (VEGF rat promoter, NCBI GenBank No. of accession U22373, Levy et al., J. Biol. Chem. 270 (22), 13333-13340, 1995), and 10 ng of pcDNA3.1(+)plasmid (INVITROGEN) which makes the cells resistant to neomycin. Transfection was carried out according to the manufacturer's instructions.
(§4) A suitable cell population (phenotypically resistant to neomycin) was selected by means of a cloning approach based on the “dilution limit” procedure (Sambrook J., Fritsch E. F. and Maniatis T. (1989) Molecular Cloning, A Laboratory Manual; Cold Spring Harbor Laboratories). The subsequent assays for Luciferase expression/activity (Luciferase assay) and for the quantification of secreted VEGF in the supernatant (ELISA secreted VEGF test) were carried out with the stably transfected selected cells.
(§5) The following experimental protocol was used:
(§6) Day 1. Hep-3B-VEGF Luciferase cells were seeded onto “blank” 96-wells plates (Greiner) at a density of 1×10^4 cells/well/125 μl of medium, then left to adhere overnight in thermostat (37° C./5% CO2).
(§7) Day 2. 75 μl of “3.2× working solutions” of compound (previously prepared in culture medium so that the DMSO concentration is 1.6% v/v) were added to the cells (partial volume/well=200 μl, partial concentration of compound=1.2×, partial concentration of DMSO=0.6%). After 1 hour incubation in thermostat, hypoxia was induced chemically by addition of 40 μl/well of a 6× (600 μM) stock solution of deferoxamine (final volume/well=240 μl, final concentration of compound=1×, final concentration of DMSO=0.5%, final concentration of deferoxamine=1×≈100 μM). The plates were then thermostated for further 18-20 hours.
(§8) Day 3. The Luciferase assay and the secreted VEGF ELISA test were carried out as follows.
Quantification of the expression of the Luciferase reporter gene was performed by means of the Bright Glo Reagent (Promega). After removing the supernatant and washing once with PBS, 40 μl/well of Bright Glo Reagent were added to blank 96-well plates with Hep3B/VEGF-Luciferase cells. The expression levels of the reporter gene were determined by reading the plates with a luminometer.
(§9) IC50 values (concentration of the compound that causes 50% inhibition of the luciferase signal or 50% reduction of secreted VEGF) for some compounds of the invention are reported in table 2.

[2] = molecular target: T1, Biot-HIF-1α786-826/GST-p300323-423 (Homo sapiens, UniProt Q09472); experiment: Primary biochemical assay for inhibition of the Hif-1α/p300 interaction (DELFIA fluorescence assay); format: binding; details: biotinylated Hif-1α 786-826 / GST-p300 323-423, mean of two independent experiments
T1 construct: the p300 region ranging from amino acids 323 to 423; Hif-1α fragment corresponding to C-terminal 786-826 amino acids; made in house; host or cells: E. coli BL21 (DE3), vector pGEX-4T-1
T1 sequence (Q09472 323-423): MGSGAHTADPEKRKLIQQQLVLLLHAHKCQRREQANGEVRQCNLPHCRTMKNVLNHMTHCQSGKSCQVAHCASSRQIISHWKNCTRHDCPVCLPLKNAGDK
Protocol: Primary Biochemical Assay for the Inhibition of Biot-HIF-1α^786-826/GST-p300^323/423
The compounds were evaluated for their ability to inhibit the interaction between Hif-1α and p300 using a fluorescence assay (DELFIA™). The procedure described by Freedman S J at al., Nature Structural Biology 2003, 10 (7), 504-512 was suitably modified.
The human biotinylated Hif-1α fragment corresponding to C-terminal 786-826 amino acids (Biotinylated Hif-1α^786-826) was obtained from AnaSpec Inc (San Jose, Calif., USA) and used without further purifications.
A construct expressing the GST-p300^323-423 fragment was transformed in the BL21 strain (DE3) of E. coli. Said construct was obtained by cloning in the expression vector pGEX-4T-1 (Amersham No. 27-45-80-01) the DNA sequence which encodes for the p300 region ranging from amino acids 323 to 423; the DNA sequence was obtained by PCR (Polymerase Chain Reaction). Protein expression was induced with 1 mM isopropyl-1-thio-13-D-galactopyranoside (IPTG). The bacteria were lysed by sonication in the presence of a suitable buffer (50 mM Tris.HCl pH 8.00, 100 mM NaCl, 0.1 mM ZnSO4, 1 mM DTT, 0.1 mg/ml lysozyme and a tablet of Complete EDTA-free Protease Inhibitor Cocktail Tablets (Roche, catalogue number 1 873 580)) and the GST fusion protein present in the soluble fraction was purified on a Glutathione-Sepharose 4B resin (Amersham Biosciences; no. 27-4574-01). The protein final concentration was determined according to Bradford with the Biorad assay (Bradford M., Anal. Biochem., 72, 248, (1976)) and sample purity was evaluated by SDS-PAGE. The samples were stored at −80° C. in 50% glycerol.
The assay was carried out using NUNC Maxisorp 96-well plates as follows.
C96 NUNC Maxisorp plates (from Nunc, product No. 446612) were incubated overnight with streptavidin (Sigma; product No. S 4762) at a final concentration of 1 μg/ml in PBS buffer (Phosphate Buffered Saline 10 mM sodium phosphate, 150 mM sodium chloride pH 7.4). Each well was subsequently washed with 3×300 μl of TBST buffer (50 mM Tris-HCl pH 8.0, 150 mM NaCl, 0.05% (v/v) Tween 20). Each well was then added with 100 μl of a 10 nM solution of biotinylated Hif-1α^786-826 in TBSB (50 mM Tris-HCl pH 8.0, 150 mM NaCl, 5% (w/v) BSA (Sigma, product No. A 2153)) and incubated for 1 h at 25° C. In the last row of each plate, TBSB buffer only was added. Each well was subsequently washed with 3×300 μl of TBST buffer. The thus prepared plate represented the assay plate.
Separately, a plate (daughter plate) containing in each well 10 μl of each test compound dissolved in DMSO to a concentration of 10 μM was prepared. This plate was added with 100 μl of a 111 pM solution of GST-p300^323-423 diluted in the incubation buffer (TBSB added with 0.1% (v/v) Tween 20, 0.5 mM DTT, 10 μM ZnCl2) and the whole was mixed. 100 μl of the mixture contained in the daughter plate was immediately transferred to the assay plate.
Each daughter plate was prepared with 80 different compounds at a 10 μM concentration, safe for the last two well rows, wherein each well was added with 10 μl of DMSO. These two rows represented the positive (row 11, +Hif-1) and negative (row 12, −Hif-1) controls.
After incubation for 1 h at 25° C., each well was washed with 3×300 μl of TBST buffer (50 mM Tris-HCl pH 8.0, 150 mM NaCl, 0.05% (v/v) Tween 20). Each well was then added with 60.8 ng of an europium-labelled anti-GST antibody (DELFIA Eu-N1 labeled; Perkin Elmer; product no. A D 0251) dissolved in 100 μl of TBST buffer containing 10 μM ZnCl2. After incubation for 1 h at room temperature, each well was washed with 3×300 μl of TBST buffer, then 100 μl of signal amplification solution (Enhancement Solution, Perkin Elmer product No. 1244-105) was added.
The plates were then read using a FUSION alpha-FP-HT reader (Perkin Elmer) in fluorescence mode for time resolution.
The activity of the compounds was calculated as follows. […]

[3] = tested on: secreted VEGF (Hep3B/VEGF Luciferase cells); experiment: Secreted VEGF ELISA test in Hep3B-VEGF Luciferase cells, hypoxia induced by deferoxamine; format: cell-based; details: Homo sapiens, deferoxamine about 100 μM, 18-20 hours, 50% reduction of secreted VEGF
Protocol: as §1, §2, §3, §4, §5, §6, §7, §8
Quantification of secreted VEGF was performed using the “DuoSet Elisa Development System human VEGF” kit (R&D Systems). […] of the supernatant from the “blank” 96-well plates with the cells of the Hep3B/VEGF Luciferase clone were transferred into transparent 96-well plates (Maxisorp) and assayed according to the indications of the kit manufacturer.
as §9

| SMILES | IC50 [1] | IC50 [2] | IC50 [3] |
| --- | --- | --- | --- |
| COC(=O)c1ccc(-c2ccc(/C=C3/SC(=S)N(CCc4ccc(OC)c(OC)c4)C3=O)o2)cc1 [Compound 21, 4-{5-[3-[2-(3,4-dimethoxyphenyl)ethyl]-4-oxo-2-thioxo-thiazolidine-5-ylidenemethyl]-furan-2-yl}benzoic acid methyl ester] | 4.86 µM | 7.4 µM | 0.24 µM |
| COc1ccc(CCN2C(=O)/C(=C\c3ccc(-c4ccc(C#N)cc4)o3)SC2=S)cc1OC [Compound 18, 4-{5-[3-[2-(3,4-dimethoxyphenyl)ethyl]-4-oxo-2-thioxo-thiazolidine-5-ylidenemethyl]-furan-2-yl}benzonitrile] | 3.17 µM | 29.9 µM | 0.49 µM |
| COC(=O)c1ccc(-c2ccc(/C=C3/SC(=S)N(Cc4cccs4)C3=O)o2)cc1 [Compound 13, 4-{5-[3-(2-thienyl)methyl-4-oxo-2-thioxo-thiazolidine-5-ylidenemethyl]-furan-2-yl}benzoic acid methyl ester] | 9.64 µM | 14.7 µM | 0.58 µM |
| COC(=O)c1ccc(-c2ccc(/C=C3/SC(=S)N(CCCN4CCOCC4)C3=O)o2)cc1 [Compound 16, 4-{5-[3-(morpholine-4-yl-propyl)-4-oxo-2-thioxo-thiazolidine-5-ylidenemethyl]-furan-2-yl}benzoic acid methyl ester] | 2.07 µM | 11.1 µM | 0.7 µM |
| N#Cc1ccc(-c2ccc(/C=C3/SC(=S)N(CCc4ccccc4)C3=O)o2)cc1 [Compound 19, 4-{5-[3-(2-phenyl)ethyl-4-oxo-2-thioxo-thiazolidine-5-ylidenemethyl]-furan-2-yl}benzonitrile] | 7.29 µM | 1.4 µM | 0.33 µM |

The next lines start with the values.

| IC50 [1] | IC50 [2] | IC50 [3] | SMILES |
| --- | --- | --- | --- |
| 6.66 µM | 8.6 µM | 0.37 µM | COC(=O)c1ccccc1-c1ccc(/C=C2/SC(=S)N(Cc3ccccc3)C2=O)o1 [Compound 1, 2-[5-(3-benzyl-4-oxo-2-thioxo-thiazolidine-5-ylidenemethyl)-furan-2-yl]benzoic acid methyl ester] |
| 3.16 µM | 4.9 µM | 0.87 µM | NS(=O)(=O)c1ccc(-c2ccc(/C=C3/SC(=S)N(Cc4ccccc4)C3=O)o2)cc1 [Compound 7, 4-[5-(3-benzyl-4-oxo-2-thioxo-thiazolidine-5-ylidenemethyl)-furan-2-yl]benzenesulfonamide] |
| > 5 µM | 5.9 µM | 0.18 µM | COC(=O)c1ccc(-c2ccc(/C=C3/SC(=S)N(Cc4ccc(C)cc4)C3=O)o2)cc1 [Compound 9, 4-{5-[3-(4-methylbenzyl)-4-oxo-2-thioxo-thiazolidine-5-ylidenemethyl]-furan-2-yl}benzoic acid methyl ester] |
| 10.5 µM | 4.2 µM | 0.46 µM | COC(=O)c1ccc(-c2ccc(/C=C3/SC(=S)N(CCc4ccccc4)C3=O)o2)cc1 [Compound 20, 4-{5-[3-[2-(phenyl)ethyl]-4-oxo-2-thioxo-thiazolidine-5-ylidenemethyl]-furan-2-yl}benzoic acid methyl ester] |
